Laboratory results as given in patent US20090010910A1, “COMPOSITIONS AND METHODS FOR DERMATOLOGICAL WOUND HEALING” (MEDIWOUND LTD., priority 2004, published 2009).

Tested on: burn eschar (deep thermal burn)
Experiment: In vivo eschar debridement test in swine model (radiant-heat deep thermal burn, 4-hour application, visual assessment score)
Design: species or system young domestic pig (Landrace×Large Whites juvenile swine)
Source text: This study assessed the eschar-debriding activity of the debriding composition in vivo using an animal model of young domestic pig (Landrace×Large Whites juvenile swine) 22 Kg±2 Kg, bearing deep thermal burn. […] In order to create test conditions burns were inflicted in fully anesthetized animals, in a dorsal test area, by a radiant heat device creating wounds of about 4.5×4.5 cm^2. The treatment consisted of a 4-hour application of the debriding composition following by cleansing of the wound. Visual evaluation of the wound and extent of debridement is carried out by photographical documentation of the burn was performed before and after the debriding treatment. The results were expressed using debridement visual assessment scoring (VAS) scale of 1 to 5 as follows:
The model was a radiant-heat thermal burn in an anesthetized young domestic pig. In order to create test conditions which are in accordance with the therapeutic use of the test article, deep dermal and full thickness burns were inflicted in all animals by applying a radiant heat device to the back to cover an area of approximately 3% TBSA (4.5×4.5 cm) for each burn. A gross evaluation of the debriding activity of the test article (the amount of eschar removed) was assessed and photographically documented. […]

`O=[N+]([O-])[O-].[Ag+]` [AgNO3] was tested, and the “debridement by semi solid cake of debriding agent reconstituted with hydrating gel plus antiseptic” value (AgNO3 (0.5%), FIG. 1) was “performs debridement” and the “difference in morphology of debrided burns between areas treated with debriding mixture comprising the antiseptic” value (FIG. 1, areas 10-12 (Silverol™) versus 14-15 (AgNO3), after cleaning dissolved eschar) was “No significant difference”.
